According to patent US20240058335A1, “METHODS FOR TREATMENT OF CANCER USING ABL INHIBITORS AND DRUGS TARGETING THE MEVALONATE PATHWAY” (Duke University, priority 2021, published 2024):

How the values were obtained:
H358 cells = assay: Cell viability dose-response assay (CellTiter-Glo), IC50 calculation; assay type: cell-based, human; settings: H358; dose-response assay; read-out: Calculated IC50
PC9 cells = assay: Pooled metabolically focused CRISPR/Cas9 loss-of-function screen with GNF5 (gene-level three scores); assay type: cell-based, human
Protocol: POOLED CRISPR SCREEN. PC9 cells were seeded into 12, six-well plates at 0.25e6 cells/well. A separate plate was also prepared for no puromycin and puromycin controls of non-transduced cells. Cells were transduced at a MOI of 0.2. 24 hours after viral transduction, cells were replated into puromycin-containing media. A sample was collected at 48 hours of puromycin exposure to confirm library coverage in the transduced population. Transduced cells were expanded in puromycin for a total of 10 days prior to drug introduction, at which point the transduced cell population was split into vehicle (DMSO) and GNF5 treatment conditions and maintained for up to two weeks. Cells were treated with 2 μM GNF5 which corresponded to 20-30% loss in cell viability following a 3-day dose response assay. Cells were counted, replated, and drug replenished every day. At any given point during the screen, each replicate was represented by a minimum of 12E6 cells, sufficient to provide 1000×coverage of the library (1000 cells per unique sgRNA). Samples of 25E6 cells were collected upon screen initiation, termination, and at weekly intervals. Following completion of the screens, DNA was extracted (DNeasy Blood & Tissue Kit, QIAGEN) and prepared for sequencing as previously described.
SCREEN ANALYSIS. Deep sequencing was performed on an Illumina Nextseq platform (75 bp, paired-ended) to identify differences in library composition. All sequencing was performed by the Duke University genome sequencing facility. Barcoded reads were mapped to the guide RNA library using bcSeq to obtain the counts for each guide RNA. Determinations of genetic essentiality and drug sensitization/resistance were made by evaluating differential guide compositions between the initial population and subsequent drug-treated and vehicle-treated cells populations. Briefly, the fractional representation (FR) for the guide reads within a sample was normalized to the total reads attributed to that sample. A direct comparison between two samples was represented by the quotient of the respective FRs in the log 2 scale, which is termed the depletion metric (DM). The guide-level DMs for each gene were then collapsed to gene-level scores by taking the average of the top three most depleted constructs resulting in a biased analysis focused on depleted genes. Genes represented by fewer than 5 guides per condition were excluded from analysis. In the 2,322-gene library, 7 genes (representing 0.3% of the total library) were excluded. Genetic essentiality was calculated by considering the depletion/enrichment of the vehicle-treated (DSMO) population over time (DMSO final/DSMO initial). Drug sensitization/resistance was calculated by considering the depletion/enrichment of the drug-treated population relative to the vehicle-treated population (Drug final/DMSO final). All depletion/enrichment effects are reported as log 2 ratios. All analyses were conducted using the R statistical environment (https://www.r-project.org/) along with extension packages from the comprehensive R archive network (CRAN; available at cran.r-project.org/) and the Bioconductor project. The analyses were carried out with adherence to the principles of reproducible analysis using the knitr package for generation of dynamic reports and gitlab for source code management. The code for replicating the statistical analysis was made accessible through a public source code repository, available at gitlab.oit.duke.edu/dcibioinformatics/pubs/pendergast-crispr-barcode.
Because many metabolic genes are known to be essential to cellular viability, determining the effect of cell-essential genetic loss on apoptosis is difficult. […] The remaining cell-essential genes are captured by the screen.
Metabolically focused CRISPR/Cas9 loss-of-function screen identifies HMGCR inhibition with statin therapy as an apoptotic sensitizer in lung cancer cells. […]

SMILES: O=C(NCCO)c1cccc(-c2cc(Nc3ccc(OC(F)(F)F)cc3)ncn2)c1 [GNF5]
- IC50 (H358 cells): 15 µM
- log2 TS (PC9 cells; CCBL1 knockout): −0.2362
- log2 TS (PC9 cells; CCBL2 knockout): −0.00176
- log2 TS (PC9 cells; CCDC102B knockout): −0.3186
- log2 TS (PC9 cells; CCDC155 knockout): −0.128
- log2 TS (PC9 cells; CDA knockout): −0.3678
- log2 TS (PC9 cells; CDADC1 knockout): −0.189
- log2 TS (PC9 cells; CDC14A knockout): −0.5269
- log2 TS (PC9 cells; CDC14B knockout): −0.3312
- log2 TS (PC9 cells; CDC25A knockout): −0.3125
- log2 TS (PC9 cells; CDC25B knockout): −0.5769
- log2 TS (PC9 cells; CDC25C knockout): 0.02041
- log2 TS (PC9 cells; CDKN3 knockout): −0.2304
- log2 TS (PC9 cells; CDO1 knockout): −0.3626
- log2 TS (PC9 cells; CECR1 knockout): 0.1378
- log2 TS (PC9 cells; CEL knockout): −0.2626
- log2 TS (PC9 cells; CERK knockout): −0.2067
- log2 TS (PC9 cells; CERKL knockout): −0.4755
- log2 TS (PC9 cells; CERS1 knockout): −0.5675
- log2 TS (PC9 cells; CERS2 knockout): −0.1757
- log2 TS (PC9 cells; CERS3 knockout): −0.3966
- log2 TS (PC9 cells; CERS4 knockout): −0.0552
- log2 TS (PC9 cells; CERS5 knockout): −0.09954
- log2 TS (PC9 cells; CERS6 knockout): −0.2316
- log2 TS (PC9 cells; CES1 knockout): −0.1103
- log2 TS (PC9 cells; CES2 knockout): −0.115
- log2 TS (PC9 cells; CES3 knockout): −0.1816
- log2 TS (PC9 cells; CFTR knockout): −0.552
- log2 TS (PC9 cells; CHAT knockout): 0.03889
- log2 TS (PC9 cells; CHI3L1 knockout): −0.08904
- log2 TS (PC9 cells; CHI3L2 knockout): −0.203
- log2 TS (PC9 cells; CHIA knockout): −0.1854
- log2 TS (PC9 cells; CHID1 knockout): −0.2305
- log2 TS (PC9 cells; CHIT1 knockout): −0.1013
- log2 TS (PC9 cells; CHKA knockout): 0.1899
- log2 TS (PC9 cells; CHPF knockout): −0.1196
- log2 TS (PC9 cells; CHPT1 knockout): 0.05664
- log2 TS (PC9 cells; CHRNA1 knockout): −0.2091
- log2 TS (PC9 cells; CHRNA2 knockout): −0.09543
- log2 TS (PC9 cells; CHRNA3 knockout): 0.193
- log2 TS (PC9 cells; CHRNA4 knockout): −0.2119
- log2 TS (PC9 cells; CHRNA5 knockout): −0.1927
- log2 TS (PC9 cells; CHRNA6 knockout): −0.00193
- log2 TS (PC9 cells; CHRNA7 knockout): −0.4166
- log2 TS (PC9 cells; CHRNA9 knockout): −0.2542
- log2 TS (PC9 cells; CHRNA10 knockout): −0.09517
- log2 TS (PC9 cells; CHRNB1 knockout): −0.07599
- log2 TS (PC9 cells; CHRNB2 knockout): −0.2245
- log2 TS (PC9 cells; CHRNB3 knockout): −0.3189
- log2 TS (PC9 cells; CHRNB4 knockout): −0.4141
- log2 TS (PC9 cells; CHRND knockout): −0.5686
- log2 TS (PC9 cells; CHRNE knockout): −0.137
- log2 TS (PC9 cells; CHRNG knockout): 0.05205
- log2 TS (PC9 cells; CHST1 knockout): −0.0245
- log2 TS (PC9 cells; CHST6 knockout): −0.3091
- log2 TS (PC9 cells; CKB knockout): −0.247
- log2 TS (PC9 cells; CKM knockout): −0.3126
- log2 TS (PC9 cells; CKMT2 knockout): −0.2525
- log2 TS (PC9 cells; CLC knockout): −0.314
- log2 TS (PC9 cells; CLCA1 knockout): −0.142
- log2 TS (PC9 cells; CLCA2 knockout): −0.4614
- log2 TS (PC9 cells; CLCA4 knockout): 0.05396
- log2 TS (PC9 cells; CLCN1 knockout): −0.1326
- log2 TS (PC9 cells; CLCN2 knockout): −0.1747
- log2 TS (PC9 cells; CLCN3 knockout): −0.494
- log2 TS (PC9 cells; CLCN4 knockout): 0.0428
- log2 TS (PC9 cells; CLCN5 knockout): −0.4161
- log2 TS (PC9 cells; CLCN6 knockout): −0.3635
- log2 TS (PC9 cells; CLCN7 knockout): −0.1319
- log2 TS (PC9 cells; CLCNKA knockout): −0.1822
- log2 TS (PC9 cells; CLCNKB knockout): −0.3352
- log2 TS (PC9 cells; CLIC1 knockout): −0.09123
- log2 TS (PC9 cells; CLIC2 knockout): −0.1159
- log2 TS (PC9 cells; CLIC3 knockout): 0.07472
- log2 TS (PC9 cells; CLIC4 knockout): −0.06827
- log2 TS (PC9 cells; CLIC5 knockout): −0.3935
- log2 TS (PC9 cells; CLIC6 knockout): −0.02678
- log2 TS (PC9 cells; CLYBL knockout): 0.05734
- log2 TS (PC9 cells; CMAS knockout): −0.3056
- log2 TS (PC9 cells; CMPK1 knockout): −0.1483
- log2 TS (PC9 cells; CNDP1 knockout): −0.1314
- log2 TS (PC9 cells; CNDP2 knockout): −0.1743
- log2 TS (PC9 cells; CNGA1 knockout): −0.1817
- log2 TS (PC9 cells; CNGA2 knockout): −0.3543
- log2 TS (PC9 cells; CNGA3 knockout): 0.05484
- log2 TS (PC9 cells; CNGA4 knockout): −0.3821
- log2 TS (PC9 cells; CNGB1 knockout): −0.4165
- log2 TS (PC9 cells; CNGB3 knockout): −0.1968
- log2 TS (PC9 cells; COA5 knockout): −0.2719
- log2 TS (PC9 cells; COASY knockout): 0.06804
- log2 TS (PC9 cells; COMT knockout): −0.2352
- log2 TS (PC9 cells; COMTD1 knockout): −0.123
- log2 TS (PC9 cells; COQ3 knockout): −0.1115
- log2 TS (PC9 cells; COQ5 knockout): −0.3619
- log2 TS (PC9 cells; COQ6 knockout): −0.1357
- log2 TS (PC9 cells; COQ9 knockout): 0.009879
- log2 TS (PC9 cells; COX10 knockout): −0.3233
- log2 TS (PC9 cells; COX11 knockout): −0.3148
- log2 TS (PC9 cells; COX15 knockout): −0.6246
- log2 TS (PC9 cells; COX17 knockout): −0.66
- log2 TS (PC9 cells; COX20 knockout): −0.2164
